Experimental data: patent US11607403B2, “Methods and compositions for promoting adult neurogenesis” (Morningside Ventures Limited, priority 2015, dated 2023)
Entries after “also recorded” stand apart in the source; their conditions may differ.

Legend:
[1] = system: hippocampus of mice subjected to chronic restraint stress; experiment: Neural progenitor amplification (BrdU-positive cells) in mice under chronic restraint stress; format: in vivo, mouse; settings: for neuron progenitor amplification (BrdU incorporation): vs allopurinol, vehicle and unrestrained controls, n=3 mice
Protocol: (§1) Murine subjects underwent CRS on day zero, with febuxostat (1 mg kg^−1 d^−1) allopurinol (20 mg kg^−1 d^−1), Rhy37 (10 mg kg^−1 d^−1), or vehicle alone, administered daily intragastrically beginning on day 15. BrdU was administered on day 36, and brain tissues harvested on day 37 or 50. Control subjects remained free throughout the trial period. Neural progenitor amplification was measured by quantifying the number of BrdU-positive cells in hippocampal tissue sections. […] Results were compared using a one-way ANOVA test.

mouse hippocampus [2] = experiment: Neural progenitor amplification (BrdU incorporation) after intracerebroventricular osmotic pump infusion; format: in vivo; settings: 1 mM intracerebroventricular, 0.5 μl per hour, 7 days, compared to allopurinol or vehicle alone
Protocol: To assess the effects of febuxostat on neural progenitor amplification, febuxostat or allopurinol (1 mM) were intracerebroventricularly delivered via osmotic pump infusion (0.5 μl per hour) to mouse brains for 7 days. Control subjects received vehicle alone. BrdU was administered in four injections on day 6, and brain tissues were harvested on day 7. Neural progenitor amplification was measured by quantifying the number of BrdU-positive cells in the subgranular zone (SGZ) of hippocampal tissue sections.

mouse hippocampus [3] = experiment: Neuronal differentiation (DCX with BrdU) after intracerebroventricular osmotic pump infusion; format: in vivo; settings: 1 mM intracerebroventricular 7 days, tissue harvested day 14, compared to allopurinol or vehicle alone
Protocol: To assess the effects of febuxostat on adult neurogenesis, febuxostat or allopurinol (1 mM) were delivered to mouse brains for 7 days as described above. BrdU was administered in eight injections over days 2-3. The osmotic pump was removed on day 7 and brain tissues were harvested on day 14. The hippocampal slices were subjected to immunohistochemical analysis for the detection of BrdU and doublecortin (DCx) (newly formed neuron marker) stained cells in the subgranular zone of the hippocampus.

[4] = system: hippocampus of mice subjected to chronic restraint stress; experiment: Neuronal differentiation (DCX+/BrdU-positive cells) in mice under chronic restraint stress; format: in vivo, mouse
Protocol: as §1

[5] = CRS mice, daily intragastric from day 15, harvest day 37 or 50, compared to allopurinol or vehicle alone

SMILES: Cc1nc(-c2ccc(OCC(C)C)c(C#N)c2)sc1C(=O)O [febuxostat, 2-(3-cyano-4-isobutoxyphenyl)-4-methyl-1,3-thiazole-5-carboxylic acid]
- neuron progenitor amplification (BrdU incorporation) ([1]; 37 days of chronic restraint stress): promotes neuron progenitor amplification
- neuron progenitor amplification (BrdU incorporation) ([1]; 50 days of chronic restraint stress): promotes neuron progenitor amplification
- neural progenitor amplification (BrdU-positive cells) [1, 5]: increased levels
- neural progenitor amplification (BrdU-positive cells in the subgranular zone) (mouse hippocampus [2]): promotes neural progenitor amplification; also recorded: increased levels
- neural differentiation (BrdU and doublecortin stained cells in the subgranular zone) (mouse hippocampus [3]): neuronal differentiation; also recorded: increased levels
- neuronal differentiation (DCX expression with BrdU incorporation) ([4]; 50 days of chronic restraint stress, vs allopurinol, vehicle and unrestrained controls): promotes neuronal differentiation
- neural differentiation (DCX+/BrdU-positive cells) [4, 5]: increased levels
